Test results taken from patent US9701670B2, “Pyrazolyl-ureas as kinase inhibitors” (RESPIVERT LIMITED, priority 2013, dated 2017).
Marks after values point to notes of the source that are not given here.

Legend:
B-Raf = B-Raf (Homo sapiens (Human), UniProt P15056); assay: Enzyme binding assay (Kinomescan)
Protocol: (§1) The kinase enzyme binding activities of compounds disclosed herein were determined using a proprietary assay which measures active site-directed competition binding to an immobilized ligand (Fabian, M. A. et al., Nature Biotechnol., 2005, 23:329-336). These assays were conducted by DiscoverX (formerly Ambit; San Diego, Calif.). The percentage inhibition produced by incubation with a test compound is calculated relative to the non-inhibited control.

B-Raf (V600e) = B-Raf (V600e) (Homo sapiens (Human), UniProt P15056, V600E); assay: Enzyme binding assay (KINOMEscan)
Sequence of B-Raf (V600e) (P15056 whole entry V600E): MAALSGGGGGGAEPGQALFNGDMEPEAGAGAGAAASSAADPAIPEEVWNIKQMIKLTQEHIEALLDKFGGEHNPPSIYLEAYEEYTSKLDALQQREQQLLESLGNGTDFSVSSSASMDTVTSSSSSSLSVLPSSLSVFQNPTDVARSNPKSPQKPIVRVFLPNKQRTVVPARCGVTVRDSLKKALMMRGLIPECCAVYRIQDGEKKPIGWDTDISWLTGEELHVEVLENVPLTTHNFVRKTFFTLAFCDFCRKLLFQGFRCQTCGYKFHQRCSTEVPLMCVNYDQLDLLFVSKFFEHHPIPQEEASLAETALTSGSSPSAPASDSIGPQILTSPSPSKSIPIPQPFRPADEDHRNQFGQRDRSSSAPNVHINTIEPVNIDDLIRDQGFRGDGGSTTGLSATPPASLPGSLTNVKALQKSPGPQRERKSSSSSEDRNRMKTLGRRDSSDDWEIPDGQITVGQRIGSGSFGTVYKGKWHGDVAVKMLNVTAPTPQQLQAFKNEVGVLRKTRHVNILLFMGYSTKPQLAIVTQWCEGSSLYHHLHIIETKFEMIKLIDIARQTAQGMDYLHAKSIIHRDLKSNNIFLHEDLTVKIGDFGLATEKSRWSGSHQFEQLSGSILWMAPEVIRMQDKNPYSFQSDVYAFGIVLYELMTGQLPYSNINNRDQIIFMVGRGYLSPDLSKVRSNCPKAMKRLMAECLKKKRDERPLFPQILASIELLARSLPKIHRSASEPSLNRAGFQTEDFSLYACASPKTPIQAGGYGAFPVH
Protocol: as §1

[1] = test system: Intestinal mucosa biopsies from the inflamed regions of the colon of IBD patients; assay: (h) Human biopsy assay (cytokine release); format: cell-based
Protocol: Intestinal mucosa biopsies are obtained from the inflamed regions of the colon of IBD patients. The biopsy material is cut into small pieces (2-3 mm) and placed on steel grids in an organ culture chamber at 37° C. in a 5% CO2/95% O2 atmosphere in serum-free media. DMSO control or test compounds at the desired concentration are added to the tissue and incubated for 24 hr in the organ culture chamber. The supernatant is harvested for determination of IL-6, IL-8, […] and TNFα levels by R&D ELISA.

[2] = test system: β-catenin in d-U937 cells; assay: (m) Accumulation of β catenin in d-U937 cells; format: cell-based, human
In short: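 PMA-differentiated U937 macrophage-type cells (100 ng/mL, 48–72 hr) were exposed to test compound or vehicle for 18 hr, then fixed. β-catenin was measured by cell ELISA (HRP/TMB, OD450-655) and normalised to crystal violet OD595. Signals below 15% of the standard control were designated "-ve".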

SCID mice = assay: (D) Adoptive transfer in mice; format: in vivo, mouse
Protocol: On Study day 0, female Balb/C mice are terminated and spleens obtained for CD45RB^high cell isolation (Using SCID IBD cell Separation protocol). Approximately 4×10^5 cells/mL CD45RB^high cells are then injected IP (100 μL/mouse) into female SCID animals. On study day 14, mice are weighed and randomized into treatment groups based on body weight. On Day 21, compounds are administered BID, via oral gavage, in a peanut oil vehicle at the dose levels outlined below and a dose volume of 5 mL/kg. Treatment continues until study day 42, at which point the animals are necropsied 4 hours after am administration. The colon length and weight is recorded and used as a secondary endpoint in the study as a measurement of colon oedema. The colon is then divided into six cross-sections, four of which are used for histopathology scoring (primary endpoint) and two are homogenised for cytokine analysis. Data shown is the % inhibition of the induction window between naïve animals and vehicle animals, where higher inhibition implies closer to the non-diseased, naïve, phenotype.

[3] = Hepatic microsomal stability; format: in vitro ADME, human
Protocol: (§2) • Microsomal stability assays were performed with incubations of test compounds at 0.1 μM (n=2, final DMSO concentration 0.25%), and carried out using pooled human, dog and rat hepatic microsomes from Xenotech (Lots 1210153, 0810143 and 1110042, respectively) at 0.25 mg protein/mL in the presence of co-factor, NADPH. The incubations were performed at 37° C. with 100 μL aliquots taken from the incubation, at 0, 2, 5, 10 and 20 minutes and reactions terminated by addition of 100 μL of acetonitrile containing carbamazepine as analytical internal standard. […] Half-life values were calculated from the relationship T1/2(min)=−0.693/λ • where λ was the slope of the Ln concentration vs time curve. • The in vitro intrinsic clearance, CIint (mL/min/kg), was calculated and scaled to hepatic extraction ratios using the following scaling parameters and formulae.
(§3) Formulae CIint(tissue clearance) mL/min/kg=[0.693/t½(min)]×[1/microsomal protein concentration mg/mL]×[mg microsomes/g liver]×[g liver/kg body weight] […] The incubations were performed at 37° C. with 100 μL samples taken from the incubation, at 0, 10, 20, 45 and 90 minutes, and reactions terminated by addition of 100 μL of acetonitrile containing carbamazepine as analytical internal standard. […] Half-life values were calculated from the relationship T1/2(min)=−0.693/λ • where λ was the slope of the Ln concentration vs time curve. • Standard compounds testosterone, midazolam and 4-methylumbelliferone are included in the assay design.

[4] = Hepatic microsomal stability; format: in vitro ADME; details: scaled from intrinsic clearance, mean of two experiments
Protocol: as §2, §3

Sequence of B-Raf (P15056 whole entry): as the sequence (P15056 whole entry V600E) above, with E600V counted along it

With C#Cc1cc(Nc2nccc(Oc3ccc(NC(=O)Nc4cc(C(C)(C)C)nn4-c4ccc(OC)cc4)c4ccccc34)n2)cc(C(=O)NCCN2CCOCC2)c1 [Example 77, 3-((4-((4-(3-(3-(tert-Butyl)-1-(4-methoxyphenyl)-1H-pyrazol-5-yl)ureido)-naphthalen-1-yl)oxy)pyrimidin-2-yl)amino)-5-ethynyl-N-(2-morpholinoethyl)benzamide] the “effect on the binding of the kinase B-Raf to its standard ligand” value (B-Raf) was “did not have any effect”, the “effect on the binding of the kinase B-Raf (V600e) to its standard ligand” value (B-Raf (V600e)) was “did not have any effect” and the “Cytokine release from biopsies of UC patients IL-1b release” value ([1]; 1 μg/mL, DMSO control 100%) was 26 ± 16%. For the same compound, the “Cytokine release from biopsies of UC patients IL-6 release” value ([1]; 1 μg/mL, DMSO control 100%) was 67 ± 128%, the “Cytokine release from biopsies of UC patients IL-8 release” value ([1]; 1 μg/mL, DMSO control 100%) was 36 ± 117% and the “cytokine release from biopsies from ulcerative colitis (UC) patients” value ([1]; added to biopsies in vitro) was “markedly reduced IL-1b, IL-6 and IL-8 release”. The “% β-catenin induction” value ([2]; 1 μg/mL test compound) was 1%, the “% β-catenin induction” value ([2]; 5 μg/mL test compound) was 0% and the “% β-catenin induction” value ([2]; 10 μg/mL test compound) was −8%. The “ratio of colon weight:length and relative inhibition of cytokine release” value (SCID mice; adoptive transfer model of colonic inflammation) was “significant activity”, the “% inhibition of IL-8 release” value (SCID mice; adoptive transfer mouse model, 5 mg/kg BID oral) was 68% and the “% Inhibition of colon weight:length” value (SCID mice; adoptive transfer mouse model, 5 mg/kg BID oral, P < 0.05 ANOVA to vehicle) was 51%*. For the same compound, the hepatic clearance ([3]; conclusion from Tables 9a and 9b (hepatic microsomes and hepatocytes)) was “high hepatic clearance”, the “Mean hepatic extraction ratio (Eh)” value ([3]; human hepatic microsomes, scaled from intrinsic clearance, mean of two experiments) was 0.94 and the “Mean hepatic extraction ratio (Eh)” value ([4]; dog hepatic microsomes) was 0.94. The “Mean hepatic extraction ratio (Eh)” value ([4]; rat hepatic microsomes) was 0.82.
